# Assay results reported in US4752612A, “Method and percutaneously administering physiologically active agents using an alcohol adjuvant and a solvent” (Nitto Electrical Industrial Co., Ltd., priority 1986, dated 1988).
# Structures can show the parent of a compound that is named as a salt. Where two headings read alike, the source gives them in different places.
# Tests used:
# [1] = tested on: rhesus monkey; test: Pharmacological (behavioral) effect in animal model after percutaneous administration; format: in vivo; settings: blood level approximately 100 ng/ml plasma
# [2] = Text: Rat full thickness skins were used in the diffusion cell method following the method of Michaels, AlChE Journal, 21 [5], 985-996, 1975. The rat skin was mounted in the diffusion cell in a vertical position between the upstream and the downstream compartments; the exposed area of the skin approximated 4.15 cm^2.
# The skin was excised from the shaved abdominal site of male albino rats weighing 250~300 g, and washed with normal saline solution after the subcutaneous fat was carefully removed with scissors.
# The active agent/PAEC solution of known concentration was added to the upper compartment of the cell, which was exposed to the epithelial side of the skin and a normal saline solution was placed in the lower compartment.
# The penetration rate was studied in a thermostated bath at 30° C.
# As an alternative, the finite dose technique of Franz, Curr. Probl. Dermatol., Vol. 7, p. 58~68 (Karger, Basel, 1978) can also be followed where the rat skin is mounted horizontally in a diffusion cell apparatus and the exposed area of the skin approximates 0.7 cm^2.
# The active agent/PAEC solution of known concentration was added to the upstream compartment to which the epithelial side of the skin was exposed, and a normal saline solution was added to the downstream compartment.
# Liquid compositions are prepared by firstly mixing Component A with Component B and then blending the active agent in the mixture. In the case that Component B is a solid at ambient temperature or will not homogenously mix with Component A, 20 wt.% of ethylene glycol monobutyl ether based on the weight of Components A and B can be used as an agent for assisting dissolution.
# The flux of the active agent is given in terms of μg/cm^2 /8 hours. Twenty-five volume percent Component A with respect to Component A plus Component B volume was used in the composition along with 2.5 weight percent of the active agent. For purposes of comparison, in certain instances the results for solvents alone and adjuvants alone are given.
# A propranolol system was formulated as follows: […] of propranolol was dissolved in 1 ml of 25 volume % dodecanol in N-methyl-2-pyrrolidone (based on total volume) and in 1 ml of ethyl alcohol as a comparison study.
# In the following Example 8, in vitro transdermal penetration was again analyzed using rat full thickness skins following the method of Michaels, AIChE Journal, 21, [53], pp. 985-996 (1975), according to the procedure earlier described. The sample volume was 1 ml unless otherwise indicated and flux of the active agent is given in μg/cm^2 /8 hours. All percents are volume percents based on the total volume of the system unless otherwise indicated.
# [3] = In vivo rhesus monkey test, plasma level after topical application; settings: for concentration at 3 h / concentration at 5 h / concentration at 7 h: topical
# Procedure: If desired, an in vivo rhesus monkey test as described below may also be used to determine the effect of the PAEC combinations of the present invention.
# Male rhesus monkeys weighing 10-14 Kg each can be used as the subject. An appropriate area of the monkey's chest is shaved 24 hours before drug application.
# Drug formulations comprising the PAEC are applied to a certain area of the chest. The monkey is restrained in a chair to prevent it from touching its chest.
# Blood samples are taken at appropriate intervals after the application. The heparinized blood is centrifuged, and the plasma removed and stored at -20° C. until analyzed.
# In the following Examples 15 and 16, the in vivo monkey regimen earlier described was used to determine the effect of the PAEC combinations of the present invention, the regimen being modified as follows:
# Male rhesus monkeys weighting 8 to 13 Kg wee used as the subject and an appropriate area of the monkey's upper back was shaved 24 hours before drug application;
# the drug formulations were applied to 49 cm^2 of the upper back of the monkey; and
# plasma samples taken at appropriate intervals were analyzed by conventional HPLC.
# 1 ml of 25% 1-dodecanol and 75% MP containing 200 mg of propanolol was impregnated into a polyester non-woven cloth (49 cm^2; 230 mg) and applied to the upper back area of the monkey.
# The application site was occluded with Saran® film.
# The procedure of Example 15 was followed except for using Indomethacin, a NSAID, in place of propranolol.
smiles,measurement,setting,value
"CN1C(=O)CN=C(c2ccccc2)c2cc(Cl)ccc21 [Diazepam, 7-Chloro-1,3-dihydro-1-methyl-5-phenyl-2H-1,4-benzodiazepine-2-one]",pharmacological (behavioral) signs of therapeutic effectiveness,[1],produces pharmacological (behavioral) signs of therapeutic effectiveness
"CC(C)Cc1ccc(C(C)C(=O)O)cc1 (stereo not drawn) [Ibuprofen, p-isobutylhydratropic acid<2',4'-isobutylphenyl propionic acid]",flux (Ibuprofen),[2]; (a) 25 mg + 1 ml of 25% 1-dodecanol and 75% N-methyl pyrrolidone,307 μg/cm^2 /8 hours
same,flux (Ibuprofen),[2]; (b) 25 mg + 1 ml of 25% 1-dodecanol in 75% N-methyl piperidone,266 μg/cm^2 /8 hours
same,flux (Ibuprofen),[2]; (c) 25 mg + 1 ml of 25% 1-dodecanol in 75% N-methyl caprolactum,148 μg/cm^2 /8 hours
"COc1ccc2c(c1)c(CC(=O)O)c(C)n2C(=O)c1ccc(Cl)cc1 [Indomethacin, 1-(p-chlorobenzoyl)-5-methoxy-2-methylindole-3-acetic acid]",flux (Indomethacin),[2]; (a) 25 mg + 1 ml of 25% linalool and 75% MP,98 μg/cm^2 /8 hours
same,flux (Indomethacin),[2]; (b) 25 mg + 1 ml of 25% 1-dodecanol and 75% MP,236 μg/cm^2 /8 hours
same,flux (Indomethacin),[2]; (c) 25 mg + 1 ml of 25% oleyl alcohol and 75% MP,236 μg/cm^2 /8 hours
same,Plasma Level,"[3]; rhesus monkey, in vivo, 60 min",0 ng/ml Plasma
same,concentration at 3 h,"[3]; rhesus monkey, in vivo",270 ng/mL
same,concentration at 5 h,"[3]; rhesus monkey, in vivo",495 ng/mL
same,concentration at 7 h,"[3]; rhesus monkey, in vivo",336 ng/mL
CCN(CC)CCNC(=O)c1cc(Cl)c(N)cc1OC [Metoclopramide (free base)],Flux,[2],2694 μg/cm^2 /8 hrs
CCN(CC)CCNC(=O)c1cc(Cl)c(N)cc1OC [Metoclopramide HCl],Flux,[2],3280 μg/cm^2 /8 hrs
"COC(=O)C1=C(C)NC(C)=C(C(=O)OC)C1c1ccccc1[N+](=O)[O-] [Nifedipine, 1,4-dihydro-2,6-dimethyl-4-(2-nitrophenyl)-3,5-pyridine dicarboxylic acid dimethyl ester]",flux (Nifedipine),[2]; (a) 25 mg + 1 ml of 25% 1-dodecanol and 75% MP,480 μg/cm^2 /8 hours
same,flux (Nifedipine),[2]; (b) 25 mg + 1 ml of 25% oleyl alcohol and 75% MP,394 μg/cm^2 /8 hours
same,flux (Nifedipine),[2]; (c) 25 mg + 1 ml of 25% 2-octyl-1-dodecanol and 75% MP,246 μg/cm^2 /8 hours
same,flux (Nifedipine),[2]; (d) control: 25 mg + 1 ml of MP,30 μg/cm^2 /8 hours
CC(C)NCC(O)COc1cccc2ccccc12 (stereo not drawn) [Propranolol],Plasma Level,"[3]; 1 hr, 200 mg in 1 ml of 25% 1-dodecanol and 75% MP, 49 cm^2 upper back, occluded",0 ng/ml Plasma
same,concentration at 3 h,"[3]; rhesus monkey, plasma, 3 hr, 200 mg in 1 ml of 25% 1-dodecanol and 75% MP, 49 cm^2 upper back, occluded",55 ng/mL
same,concentration at 5 h,"[3]; rhesus monkey, plasma, 5 hr, 200 mg in 1 ml of 25% 1-dodecanol and 75% MP, 49 cm^2 upper back, occluded",85 ng/mL
same,concentration at 7 h,"[3]; rhesus monkey, plasma, 7 hr, 200 mg in 1 ml of 25% 1-dodecanol and 75% MP, 49 cm^2 upper back, occluded",80 ng/mL
